In ChEMBL document CHEMBL1143215, “Orally active esters of dihydroartemisinin: Synthesis and antimalarial activity against multidrug-resistant Plasmodium yoelii in mice” (Bioorg Med Chem Lett, 2008):
Activity calls are given as the source filed them. No cut-off for these calls is given here.

Tests used:
[1] = test system: Plasmodium yoelii nigeriensis; experiment: Reduced parasitemia in multidrug-resistant Plasmodium yoelii nigeriensis infected Swiss mice (Mus musculus) at 12 mg/kg peroral dose after 4 days; type: functional; parameters: scale not given: the % may be the effect or the level left; details: route oral
[2] = test system: Plasmodium yoelii nigeriensis; experiment: Reduced parasitemia in multidrug-resistant Plasmodium yoelii nigeriensis infected Swiss mice (Mus musculus) at 48 mg/kg peroral dose after 4 days; type: functional; parameters: scale not given: the % may be the effect or the level left; details: route oral
[3] = test system: Plasmodium yoelii nigeriensis; experiment: Survival in multidrug-resistant Plasmodium yoelii nigeriensis infected Swiss mice (Mus musculus) at 12 mg/kg peroral dose after 28 days; type: functional
[4] = Partition coefficient, log P of the compound; type: physicochemical; details: octanol/water
[5] = test system: Plasmodium yoelii nigeriensis; experiment: Antimalarial activity as reduced parasitemia day 4 against multidrug-resistant Plasmodium yoelii nigeriensis infected Swiss mice (Mus musculus) at 24 mg/kg/day peroral dose over 4 days; type: functional; parameters: scale not given: the % may be the effect or the level left; details: route oral
[6] = Chemical stability in acidic solution containing tetrahydrofuran and 10% aqueous HCl after 96 hrs; type: physicochemical; details: acidic solution of tetrahydrofuran and 10% aqueous HCl; read-out: Stability

Row | SMILES | Activity [1] [%] | Activity [2] [%] | Activity [3] | logP [4] | Activity [5] [%] | remaining at 96 h [6] [%] | Activity ([3]; route oral) [%]
1 | C[C@H]1[C@H](OC(=O)CC2c3ccccc3-c3ccccc32)O[C@@H]2O[C@]3(C)CC[C@H]4[C@H](C)CC[C@@H]1[C@@]24OO3 | 100 | 100 | inactive | 6.79 | 100 | – | –
2 | C[C@H]1[C@H](OC(=O)COc2ccccc2-c2ccccc2)O[C@@H]2O[C@]3(C)CC[C@H]4[C@H](C)CC[C@@H]1[C@@]24OO3 | 100 | 100 | – | 6.53 | 100 | – | –
3 | C[C@H]1[C@H](OC(=O)C2c3ccccc3-c3ccccc32)O[C@@H]2O[C@]3(C)CC[C@H]4[C@H](C)CC[C@@H]1[C@@]24OO3 | 100 | 100 | – | 6.61 | 100 | 80 | –
4 | C[C@H]1[C@H](OC(=O)CC2C3CC4CC(C3)CC2C4)O[C@@H]2O[C@]3(C)CC[C@H]4[C@H](C)CC[C@@H]1[C@@]24OO3 (some centres not stated) | 100 | 100 | – | 5.85 | 100 | – | –
5 | C[C@H]1[C@H](OC(=O)COc2ccc(-c3ccccc3)cc2)O[C@@H]2O[C@]3(C)CC[C@H]4[C@H](C)CC[C@@H]1[C@@]24OO3 | 100 | 100 | – | 6.53 | 100 | – | –
6 | C[C@H]1[C@H](OC(=O)c2ccc(-c3ccccc3)cc2)O[C@@H]2O[C@]3(C)CC[C@H]4[C@H](C)CC[C@@H]1[C@@]24OO3 | – | 100 | – | 6.95 | 100 | – | –
7 | CCO[C@H]1O[C@@H]2O[C@@]3(C)CC[C@H]4[C@H](C)CC[C@@H]([C@H]1C)[C@@]24OO3 [ARTEMOTIL] | – | 100 | – | – | 100 | – | –
8 | C[C@H]1[C@H](OCC23CC4CC(CC(C4)C2)C3)O[C@@H]2O[C@]3(C)CC[C@H]4[C@H](C)CC[C@@H]1[C@@]24OO3 | 100 | – | – | – | – | – | –
9 | C[C@H]1[C@H](OC(=O)CC23CC4CC(CC(C4)C2)C3)O[C@@H]2O[C@]3(C)CC[C@H]4[C@H](C)CC[C@@H]1[C@@]24OO3 | 100 | 100 | – | 5.99 | 100 | – | 20
10 | C[C@H]1[C@H](OC(=O)Cc2ccc(-c3ccccc3)cc2)O[C@@H]2O[C@]3(C)CC[C@H]4[C@H](C)CC[C@@H]1[C@@]24OO3 | – | 100 | – | 6.89 | 100 | – | –
11 | C[C@H]1[C@H](OC(=O)C23CC4CC(CC(C4)C2)C3)O[C@@H]2O[C@]3(C)CC[C@H]4[C@H](C)CC[C@@H]1[C@@]24OO3 | 100 | 100 | – | 6.05 | 100 | – | –
12 | C[C@H]1[C@H](OC(=O)CCC23CC4CC(CC(C4)C2)C3)O[C@@H]2O[C@]3(C)CC[C@H]4[C@H](C)CC[C@@H]1[C@@]24OO3 | 100 | 100 | – | 6.41 | 100 | – | –
13 | C[C@H]1[C@H](OC(=O)CCC(=O)O)O[C@@H]2O[C@@]3(C)CC[C@H]4[C@H](C)CC[C@@H]1[C@@]24OO3 [ARTESUNATE] | – | 100 | – | – | 100 | – | –
14 | C[C@H]1[C@H](OCc2ccc(-c3ccccc3)cc2)O[C@@H]2O[C@]3(C)CC[C@H]4[C@H](C)CC[C@@H]1[C@@]24OO3 | 100 | – | – | – | – | – | –
